Here are results for two compounds from US20230026402A1, “MICROBIOTA BASED THERAPIES TO PROMOTE MENTAL HEALTH” (Cornell University, priority 2019, published 2023).

Entries after “also recorded” stand apart in the source; their conditions may differ. Where a name gives a salt, the structure may show the parent alone.

Experiment [1] has as its system BV-2 cells. Nature of the experiment: AhR blockade of metabolite-induced changes in BV-2 microglia. The note with it: metabolite cocktail 32 ug/mL each plus CH223191 5 uM, 5 days. The class given is cell-based, mouse. The procedure: FIG. 28. […] Results of AhR blockade on metabolite-induced proliferation and cell surface profile changes in BV-2 microglia. BV-2 cells were treated with vehicle (DMSO), metabolite cocktail (32 ug/mL of each metabolite), or metabolite cocktail with the AhR inhibitor CH223191 (5 uM final concentration in DMSO) for 5 days before performing the same analysis as in slide 5 (CSF1R and F4/80 or Ki67 staining). While the increase in F4/80 and CSF1R intensity is dependent on intact AhR signaling (top row), AhR signaling is dispensable for metabolite-induced proliferation (bottom row). Each bar is the average of 4 separate wells+/−SEM. P-vales calculated using two-way ANOVA.

The subject of experiment [2] is BV-2 cells. Nature of the experiment: BV-2 phagocytosis assay with apoptotic N2A bait cells (CypHer5). The class given is cell-based, mouse. Conditions: metabolite cocktail plus CH223191 5 uM. From the text:
FIG. 32. Outline of phagocytosis assay in BV-2 cells. Briefly, apoptotic N2A cells (“bait”) are generated by UV irradiation and loaded with the pH sensitive dye CypHer5 before co-culture with Hoechst stained BV-2 cells. After washing, BV-2 cells are the collected and analyzed by flow cytometry.
FIG. 33. […] Each bar is the average of 4 separate wells +/−SEM. P-vales calculated using two-way ANOVA.
Finally, we asked whether treatment with metabolites altered the ability of BV-2 microglia to engulf apoptotic N2A cells as outlined above. In this assay the phagocytes (in this case BV-2 cells) are treated with metabolites or vehicle for 120 h and then loaded with Hoechest dye. N2A cells are killed with UV radiation (confirmed by staining with viability dyes and Annexin V to distinguish apoptotic from necrotic cells) and then loaded with the pH sensitive dye CypHer5 which only fluoresces in the phagolysosome. They are then fed to BV-2 cells for a predetermined length of time (5:1 ratio of N2A to BV-2, 1 h of eating) before being harvested and analyzed by flow cytometry (FIG. 32).

For experiment [3], the system named is BV-2 immortalized mouse microglia. Nature of the experiment: Metabolite time course in BV-2 microglia (Ki67 proliferation, CSF1R and F4/80 surface staining). The class given is cell-based. The note with it: BV-2 cells, 32 ug/mL of each compound; for proliferation (percent Ki67+ cells): 5 days (120 h); for CSF1R cell surface staining intensity (MFI) / F4/80 cell surface staining intensity (MFI): 5 days. The procedure:
FIG. 26. Representation of the outline of metabolite time course experiment utilizing BV-2 immortalized mouse microglia. BV-2 cells are plated with either media alone, or with a cocktail of the 4 metabolites identified in slide 1 at a final concentration of 32 ug/mL of each compound at the indicated time points. Cells are then harvested and stained using conventional methods for either cell surface markers or the proliferation marker Ki67.
FIG. 27. Metabolite treatment increases proliferative capacity and alters the cell surface profile of BV-2 cells. Results of metabolite time course in BV-2 cells. […] Each bar is the average of 4 separate wells+/−SEM. P-vales calculated using two-way ANOVA.
FIG. 29. […] In order to test the ability of the AhR ligand indoxyl sulfate in BV-2 microglia, cells were treated for 5 days with either a cocktail of metabolites or with indoxyl sulfate (32 ug/mL of all compounds tested). […] Each bar is the average of 4 separate wells+/−SEM. P-vales calculated using two-way ANOVA.
Purified cultures, or immortalized equivalents were used. The cells were treated with a cocktail of the 4 metabolites to evaluate microglial response to metabolite treatment (FIG. 26). […] There is a relatively linear effect with increasing proportions of proliferation or F4/80, CSF1R high cells with increasing exposure to the metabolite cocktail.
We next asked if individual metabolites were responsible for the biological activity of the metabolite cocktail or whether multiple metabolites were required.

On to `Cc1ccccc1N=Nc1ccc(NC(=O)c2ccnn2C)c(C)c1` [CH223191], for which, in the experiment on BV-2 cells [1], the “metabolite-induced increase in CSF1R intensity under AhR inhibition” value was “required for the upregulation of CSF1R and F4/80; also recorded: reduces metabolite induced changes in surface markers”; the “metabolite-induced increase in F4/80 intensity under AhR inhibition” value is “required for the upregulation of CSF1R and F4/80; also recorded: reduces metabolite induced changes in surface markers”; the “metabolite-induced proliferation (Ki67) under AhR inhibition” value was “dispensable for enhancement of proliferation; also recorded: does not change proliferation”. Further, in the experiment with BV-2 cells [2], the “metabolite-induced phagocytosis under AhR inhibition” value is “significance is abolished”. Moreover, the “metabolite-induced phagocytosis under AhR inhibition” value in the experiment with BV-2 cells [2] (listed as Met+CH) was “NOT dependent on AhR signaling”.
Consider `O=S(=O)(O)Oc1c[nH]c2ccccc12` [indoxyl sulfate], for which, in experiment [3], the “proliferation (percent Ki67+ cells)” value is recorded as “nor does it increase the proliferative capacity”, the “CSF1R cell surface staining intensity (MFI)” value is recorded as “does not increase CSF1R or F4/80 protein staining intensity” and the “F4/80 cell surface staining intensity (MFI)” value is given as “does not increase CSF1R or F4/80 protein staining intensity”. In experiment [3] (listed as IS), the “proliferation (percent Ki67+ cells)” value is recorded as “unable to significantly change either cell surface levels of F4/80 or CSF1R or to increase proliferation”, the “CSF1R cell surface staining intensity (MFI)” value is “unable to significantly change” and the “F4/80 cell surface staining intensity (MFI)” value is listed as “unable to significantly change”.
